Assay results from publication PMC9446799, “Preparation of a camptothecin analog FLQY2 self-micelle solid dispersion with improved solubility and bioavailability” (Journal of Nanobiotechnology, 2022).
Counter-ions that a name gives are not always drawn. Values belong to the molecule of their own block, whether it stands above or below them.

Legend:
[1] = Identification of metabolites in plasma, urine and feces (UPLC-TripleTOF); conditions: ESI−, [M-H]-; F, U, P not defined in the table (feces, urine, plasma samples analysed)
Experimental: The plasma, urine, and feces samples were processed as described above without IS, and the remaining volumes were made up of the precipitant. Chromatographic analysis was performed on an UltiMate 30 (Thermo Fisher Scientific, San Jose, CA, USA). Separation was carried out on an ACQUITY UPLC HSS T3 (1.8 μm, 2.1 × 100 mm) at 40 °C, 2 µL injection volume. In the positive ion mode, the mobile phase consisted of water containing 0.1% formic acid (A) and acetonitrile containing 0.1% formic acid (B). The gradient elution was performed with 5% B for 1.5 min, increasing to 10% B at 2.5 min, then ramping to 40% B at 14 min, rising to 95% B at 22 min, and remaining at 95% B until 25 min, and finally, the column was reconditioned with 5% B for 5 min. The mobile phase consisted of water containing 2 mM ammonium acetate (A) and acetonitrile (B) in the negative ion mode. The gradient elution was the same as in the positive ion mode.
Mass spectrometric analysis was acquired by Peakview 2.2 and MetabolitePilot 2.0.4 software using a quadrupole time-of-flight mass spectrometry (TripleTOF™ 5600, AB Sciex Corporation., Foster City, CA) with MS scans and information dependent acquisition (IDA) MS/MS scans. The mass spectrometer was operated in both positive and negative ion mode with electrospray ionization (ESI) source at 650 ℃. […]

[2] = test system: HT-29 tumor; assay: Anticancer activity in vivo in HT-29 tumor-bearing mice; design: species or system BALB/c mice; conditions: 100 mpk, i.p./QW, day 28
Experimental: 0.1 mL suspension of HT-29 cells were inoculated in female BALB/c mice at a density of 2 × 10^7/mL. After the tumors grew to 100–200 mm^3 (the day recorded as D0), the mice were randomly grouped and administered with Irinotecan hydrochloride (100 mpk, i.p./QW) (n = 6), Paclitaxel-albumin (15 mpk, i.v./Q4D) (n = 6), FLQY2-SD (1.5 mpk, p.o./QW) (n = 6), FLQY2-SD (1 mpk, p.o./QW) (n = 6), and saline as a blank control (n = 12). The tumor volume and body weight of the mice were recorded every 2 days. On day 28, the mice were sacrificed, and the tumors were surgically removed and weighed. Some parameters were calculated as follows.
tumor volume (TV): TV=1/2×ab^2
relative tumor volume (RTV): RTV=Vt/V0
tumor growth inhibition (TGI): TGI=(1-VT28-VT0/VC28-VC0)×100%
Where a and b are the length and width of the tumors; V0 and Vt are the tumor volume measured at D0 and at each measurement time Dt; VT28 and VT0 are the mean tumor volume in the treatment group at D28 and D0; VC28 and VC0 are the mean tumor volume in the negative control group at D28 and D0.

[3] = test system: HCT 116 and MIA PaCa-2 cells; assay: MTT cytotoxicity assay; assay type: cell-based, Human
Experimental: (§1) The sample preparation: FLQY2 was dissolved in DMSO as a stock solution, and the stock solution was diluted by DMEM medium as a working solution. FLQY2-SD/ FLQY2-PM powder was dissolved in water, then the FLQY2-SD/FLQY2-PM solution was diluted by DMEM medium.
(§2) The cells were cultured in McCoy’s 5A medium for HCT 116 or DMEM medium for MIA PaCa-2 cells. All mediums contained 10% FBS and 1% penicillin–streptomycin solution. The cytotoxicity of FLQY2/FLQY2-SD was measured against these cells using an MTT assay. Briefly, 1 × 10^4 cells per well were seeded into 96 well plates for 24 h. Different concentrations of FLQY2 /FLQY2-SD solution and blank fresh medium were added to the plates and then incubated for 72 h. After adding MTT solution (5 mg/mL) for 4 h, 150 μL of DMSO was added to dissolve the formazan crystals. Absorbance at 570 nm with the control wavelength of 630 nm was used in infinite M200 pro (Tecan, Switzerland). Cell viability was expressed as a percentage relative to the blank control.

[4] = Inhibition of crystallization (solvent-shift method); assay type: physicochemical; conditions: for saturated concentration of FLQY2: in Soluplus aqueous solution (2 mg/mL), 37 °C
Experimental: Inhibition of crystallization was studied using the solvent-shift method. 3 mL FLQY2 DMSO solution (1 mg/mL) was mixed respectively with six different 30 mL aqueous solution including six carriers (2 mg/mL) and stirred at 120 r/min under 37 °C. 0.5 mL solution was collected at 0.0833, 0.5, 1, 2, 4, 6, 8 h, filtered through 0.22 μm filters, and determined the dissolved FLQY2 by HPLC.

[5] = MTT cytotoxicity assay; assay type: cell-based, Human; conditions: human
Experimental: as §1, §2

[6] = test system: HCT 116 and Hep G2 cell lines; design: method as in PMID 31309350; conditions: cited from earlier work
[7] = test system: P-gp; conditions: cited from earlier work

Molecule: CC[C@@]1(O)OCc2c1cc1n(c2=O)Cc2c-1nc1cc3c(cc1c2-c1ccc(C(F)(F)F)cc1)OCO3 [M3]
- Source (biological sample in which detected) [1]: F, U, P

Molecule: CCc1c2c(nc3ccc(OC(=O)N4CCC(N5CCCCC5)CC4)cc13)-c1cc3c(c(=O)n1C2)COC(=O)[C@]3(O)CC [Irinotecan hydrochloride]
- TGI [2]: 66.5%

- Source (biological sample in which detected) [1]: F, U, P
Molecule: C=c1c(=O)n2c(c/c1=C(/O)CC)-c1nc3cc4c(cc3c(-c3ccc(C(F)(F)F)cc3)c1C2)OCO4 [M1]

Molecule: Polyvinyl caprolactam-polyvinyl acetate-polyethylene glycol graft copolymer [Soluplus®]
- cell viability [3]: exceeded 91.0 ± 3.8%

Molecule: CC[C@@]1(O)C(=O)OCc2c1cc1n(c2=O)Cc2c-1nc1cc3c(cc1c2-c1ccc(C(F)(F)F)cc1)OCO3 [FLQY2, 7-p-trifluoromethylphenyl-FL118]
- saturated concentration of FLQY2 ([4]; at 5 min): 51.60 µg/mL
- saturated concentration of FLQY2 ([4]; at 8 h): 48.76 µg/mL
- crystallization inhibition outcome ([4]; mixture including PEG4000, PEG6000, PVP Va64, HS 15 and P407 (2 mg/mL)): crystallization and precipitation
- viability at 2 h, 1 µM [5]: > 92.5%
- cytotoxicity [3]: dose-dependent toxicity
- IC50 [6]: nM level
- efflux ratio [7]: < 2
